What was measured:
diabetic ob/ob mice = test: Chronic (28 days) treatment of diabetic ob/ob mice: glucose, HbA1c, body weight; format: in vivo, mouse
Procedure: The time course of the effect of the test compound on body weight, glucose lowering and HbA1c lowering in ob/ob mice was investigated post dose, with values at 4 weeks presented in FIGS. 11A, 11B, 11C and 11D. […] Points represent mean±s.d. (standard deviation). Each test compound was injected IP on day=0 immediately following baseline sample collection in non-fasted male ob/ob mice. […] Unless indicated otherwise, blood glucose measures described herein employed a OneTouch® Ultra® device (LifeScan, Inc. Miliptas, Calif.).

NIH/Swiss mice = test: OGTT DOA (oral glucose tolerance test for duration of action) in NIH/Swiss mice; format: in vivo, mouse; details: Table 6; 25 nmol/kg IP at t=−1 day; blood glucose at 30 min after glucose gavage ([…]); 4 hr fasted NIH/Swiss female mice
[1] = PK profile, food intake and body weight after a single subcutaneous dose in normal HSD rats; format: in vivo, rat; details: 25 nmol/kg subcutaneous
Procedure: Blood was collected via tail bleed at t=1 hour, 3 hours, 6 hours, 24 hours, 48 hours, 72 hours, 96 hours and 168 hours from fed HSD male rats. Food and body weights were measured daily. […] Points represent mean±sd.
Pharmacokinetic profile and biological activity of an exemplary engineered polypeptide subcutaneously dosed in normal Harlan Sprague-Dawley (HSD) rats is presented. […] Blood was collected via tail bleed at t=1 hour, 3 hours, 6 hours, 24 hours, 48 hours, 72 hours, 96 hours and 168 hours from fed HSD male rats. Food and body weights were measured daily. […] Points represent mean±sd. In the figures, vehicle is solid square, Cmpd 2-11 is open inverted triangle and Cmpd 2-9 is closed triangle. The plasma maximal concentration in FIG. 18C is equivalent to about 25,000 picomolar.

C57BL6 female mice = test: Kidney vacuolization (cytoplasmic vacuolation of renal cortical tubular epithelial cells); format: in vivo, mouse; details: Example 14; sc injection on days 0-6, kidneys on day 7
Procedure: (§1) With some drugs, such as some pegylated proteins, undesirable vacuoles can form in cytoplasm of epithelial cells lining the proximal convoluted tubules, which is an undesirable toxicity measure. […] C57BL6 female mice (n=2 cages, 3 mice/cage) were weighed daily 3 hours prior to lights out Immediately after weighing, on days 0-6 mice were injected subcutaneously with test compound. Mice were sacrificed on day 7 and kidneys submitted for histopathology. […] A positive control compound known to cause vacuole formation was scored as 3. The ABD polypeptide itself scored 0.
as §1, with “3.” for “3. The ABD polypeptide itself scored 0.”

db/db mice = test: Oral (gavage) delivery, blood glucose lowering in diabetic db/db mice; format: in vivo, mouse; details: 240 nmol/kg peroral by gavage in PBS/propylene glycol (50:50); 2-hour fasted db/db mice; to 120 minutes
Sprague Dawley rats = test: IVGTT DOA in HSD fed anesthetized rats 5 days post dose; format: in vivo, rat; details: 240 nmol/kg
Procedure: In vivo assays for activity and duration of action and pharmacokinetics can be done using known methods. For example, duration can be performed using an oral glucose tolerance test (OGTT) in which the drug is administered to the subject at a desired time point before the glucose is administered orally (to measure drug duration of action; OGTT DOA) and glucose blood levels are measured (e.g. readily done in mice). Activity and duration can also be measured using an intravenous glucose tolerance test (IVGTT) in which the drug is administered to the subject at a desired time point before the glucose is administered IV (IVGTT DOA) and blood glucose levels are measured (e.g. can readily be done in rats). Preferred engineered compounds have a desired effect on blood glucose of at least 24 hours duration after a single dose of drug, preferably at least 3 days, at least 4 days, at least 5 days, at least 6 days, and at least 1 week after the single dose of drug is given.
The time course of plasma glucose after IVGTT is depicted in FIG. 4A. Integrated (AUC0-60) glucose levels are depicted in the histogram of FIG. 4B. The time course of the change in insulin levels in the test subjects was depicted in FIG. 4C. The integrated insulin levels (AUC0-30) are depicted in FIG. 4D. The time course of body weight change (% change from baseline) is depicted for the test subjects in FIG. 4E. […]

ob/ob mice = test: Body weight, glucose and HbA1c in ob/ob mice after a single sc dose; format: in vivo, mouse; details: single sc injection, non-fasted male ob/ob mice; Cmpd 15 at 250 nmol/kg
Source text: Changes in glucose (% pre-treatment) and in HbA1c (% pre-treatment) are depicted in FIGS. 5B-5C. Points represent mean±s.d. (standard deviation). […] Unless indicated otherwise, blood glucose measures described herein employed a OneTouch® Ultra® device (LifeScan, Inc. Miliptas, Calif.).

[2] = Stability in human plasma; format: in vitro ADME; details: 10 μg/ml in human plasma, 37 degrees C, 5 hours; normalized to a standard (100%)
[3] = 25 and 250 nmol/kg IP twice each week for 28 days

HGEGTFTSDLSKQLEEEAVRLFIEWLKQGGPSKEIISTGGGGSASLAEAKVLANRELDKYGVSDFYKRLINKAKTVEGVEALKLHILAALP [Cmpd 15]
glycemic and body weight loss effects compared to the maximally efficacious dose of exendin-4 (in words) (diabetic ob/ob mice; 25 nmol/kg biw IP vs exendin-4 ~[…] CSI, 28 days): exceeded | effect compared to the maximally efficacious dose of exendin-4 (in words) (diabetic ob/ob mice; 250 nmol/kg biw IP, 28 days): significantly greater than the maximally efficacious dose of exendin-4 | HbA1c lowering (in words) (diabetic ob/ob mice; [3]): significant HbA1c lowering | body weight loss (in words) (diabetic ob/ob mice; [3]): significant body weight loss | HbA1c lowering and body weight loss compared to liraglutide (in words) (diabetic ob/ob mice; equimolar dosing to liraglutide, data not shown): more effective than liraglutide | glucose lowering upon chronic exposure compared to liraglutide (in words) (diabetic ob/ob mice; equimolar dosing, twice weekly (BIW), ob/ob mice): superior to liraglutide | % Glucose Lowering Compared to Vehicle (NIH/Swiss mice): −21% | apparent half-life [1]: 54 h | Severity score for cytoplasmic vacuolation of renal cortical tubular epithelial cells (C57BL6 female mice): 0 | activity after oral dosing (blood glucose, in words) (db/db mice): active when dosed orally | time after administration at which drug activity is present (IVGTT DOA) (Sprague Dawley rats): at least 5 days | body weight in ob/ob mice (in words) (ob/ob mice): significant body weight loss | Percent Stable in Human Plasma [2]: 96.0%
